Reference: PMC8009478, “Novel Curcumin-Diethyl Fumarate Hybrid as a Dualistic GSK-3β Inhibitor/Nrf2 Inducer for the Treatment of Parkinson’s Disease” (ACS Chemical Neuroscience, 2020)
Values joined by “and” are separate entries in the source; they are usually repeats but may differ in a detail not shown here. Identical values can stand only once.

Key:
Nrf2 = Nrf2 nuclear translocation by Western blotting; type: cell-based, human; settings: 5 μM; for nuclear translocation of Nrf2: 1, 3 and 6 h; for treatment time of maximum ratio between nuclear and cytosolic Nrf2 levels: 1, 3 and 6 h tested
Method: (§1) In light of these findings, 4 and 5 emerged as the most promising to be further studied regarding their effect on the Nrf2/ARE pathway. […] The maximum ratio between nuclear and cytosolic Nrf2 levels was detected after a 3 h treatment for both compounds, while a slight reduction was observed after 6 h.
(§2) Figure 5 Effects of compounds 4 and 5 on the Nrf2/ARE signaling pathway (A and B) and NQO1 gene expression (C) in SH-SY5Y cells. (A) Cells were treated with compounds 4 and 5 (5 μM) for different times (1, 3, and 6 h). Translocation of Nrf2 from the cytosol to the nucleus was evaluated by Western blotting. Data are expressed as a ratio between nuclear Nrf2 and cytoplasmic Nrf2 levels and reported as mean ± SEM of at least three independent experiments. (B) Cells were treated with compounds 4 and 5 (5 μM) and DMF (5 μM) for 6 h. The Nrf2/ARE binding activity was determined by an ELISA assay. Results are expressed as fold increase versus untreated cells and reported as mean ± SEM of at least three independent experiments (** p < 0.01 and * p < 0.05 versus untreated cells at the t-test). (C) Cells were treated with compounds 4 and 5 (5 μM) for different times (6, 12, and 24 h). The NQO1 expression was determined by RT-PCR. Results are expressed as the relative normalized expression and reported as mean ± SEM of at least three independent experiments (*** p < 0.001 versus untreated cells at one-way ANOVA with the Dunnett post hoc test).

Nrf2/ARE = Nrf2/ARE binding activity, ELISA (TransAM Nrf2 Kit); type: cell-based, human; settings: 6 h; for Nrf2/ARE binding activity: 5 μM; for Nrf2/ARE effect compared to DMF: compounds and DMF at 5 μM
Method: as §1, §2
The levels of active Nrf2 protein were determined on the nuclear extracts (10 μg, see above) by using the DNA-binding ELISA TransAM Nrf2 Kit (Active Motif), according to the manufacturer’s guidelines. In detail, the kit comprises a primary antibody able to recognize an epitope on Nrf2 protein upon ARE binding. In the treated cells, the amount of active Nrf2 protein is expressed as a fold increase in comparison to the corresponding untreated cells.

SH-SY5Y cells [1] = test: Neuroprotection against Aβ1–42 oligomers, MTT assay; type: cell-based, human; settings: 5 μM for 24 h, then OAβ1–42 10 μM for 4 h
Method: Intracellular accumulation of soluble Aβ1–42 oligomers is responsible for neurotoxic effects, such as neuronal death, and represents a key event in AD pathogenesis.[33] […] Briefly, SH-SY5Y cells were incubated with 5 μM concentration of the selected analogues for 24 h, followed by OAβ1–42 oligomers treatment (10 μM) for 4 h (Figure 6A).
Figure 6 Effects of 4 and 5 on neurotoxicity induced by OAβ1–42 oligomers and 6-OHDA in SH-SY5Y cells. (A) Cells were incubated with 4 and 5 (5 μM, for 24 h) and then treated with OAβ1–42 (10 μM, for 4 h). (B) Cells were incubated with compounds 4 and 5 (5 μM, for 24 h), then treated with 6-OHDA (100 μM, for 2 h), and then starved in complete medium for 22 h. The neurotoxicity was evaluated by an MTT assay. Data are expressed as percentages of neurotoxicity versus cells treated with Aβ1–42 oligomers or 6-OHDA and reported as mean ± SEM of at least three independent experiments (* p < 0.05 versus cells treated with 6-OHDA at one-way ANOVA with the Dunnett post hoc test). […]
Then, cells were treated with Aβ1–42 oligomers for 4 h. The neuroprotective activity, in terms of an increase in intracellular MTT granules, was measured by an MTT assay, as previously described (see the Supporting Information for experimental details).[46]

SH-SY5Y cells [2] = test: Neuroprotection against 6-OHDA, MTT assay; type: cell-based, human; settings: 5 μM for 24 h, then 6-OHDA 100 μM for 2 h
Method: Figure 6 Effects of 4 and 5 on neurotoxicity induced by OAβ1–42 oligomers and 6-OHDA in SH-SY5Y cells. (A) Cells were incubated with 4 and 5 (5 μM, for 24 h) and then treated with OAβ1–42 (10 μM, for 4 h). (B) Cells were incubated with compounds 4 and 5 (5 μM, for 24 h), then treated with 6-OHDA (100 μM, for 2 h), and then starved in complete medium for 22 h. The neurotoxicity was evaluated by an MTT assay. Data are expressed as percentages of neurotoxicity versus cells treated with Aβ1–42 oligomers or 6-OHDA and reported as mean ± SEM of at least three independent experiments (* p < 0.05 versus cells treated with 6-OHDA at one-way ANOVA with the Dunnett post hoc test).
The neurotoxin 6-OHDA provides an in vitro lesion model by inducing CNS oxidative damage and neuroinflammation suitable for assessing the neuroprotective potential of PD therapeutics.[34] Consistent with these effects, 6-OHDA (100 μM, for 2 h) was employed to induce damage in SH-SY5Y cells previously treated with 4 and 5 (5 μM, for 24 h).
Then, cells were treated with 6-hydroxydopamine (6-OHDA, 100 μM) for 2 h and starved in complete medium for 22 h. The neuroprotective activity was measured by using the MTT assay as previously described.[47] Data are expressed as a percentage of neurotoxicity versus untreated cells.

[3] = tested on: TagGFP2-α-syn SH-SY5Y cells; test: α-syn aggregates induced by 6-OHDA, fluorescence microscopy; type: cell-based, human; settings: 5 μM for 24 h, then 6-OHDA 100 μM for 2 h
Method: Assessment of the α-syn aggregate formation was performed to corroborate the above results. TagGFP2-α-syn SH-SY5Y cells were treated for 24 h with 5 μM of 4 and 5 and then with 100 μM of 6-OHDA. After a 2 h incubation, the presence of α-syn aggregates was visualized by fluorescence microscopy analysis and quantified (Figure 7).
Figure 7 Effects of compounds 4 and 5 on α-syn aggregates induced by 6-OHDA in TagGFP2-α-syn SH-SY5Y cells. Cells were treated with compounds 4 and 5 (5 μM, for 24 h) and then with 6-OHDA (100 μM, for 2 h). At the end of incubation, the α-syn aggregates level was detected by fluorescence microscope. (A) Representative images of α-syn aggregates. (B) Quantification of the α-syn aggregates level. Data are expressed as mean fluorescence intensity ± SEM of at least three independent experiments (§§ p < 0.01 vs untreated cells, * p < 0.05 vs cells treated with 6-OHDA at one-way ANOVA with the Bonferroni post hoc test). Scale bars: 50 μm.
At the end of incubation, the aggregation of α-synuclein was detected using an inverted fluorescent microscope (Eclipse Ti-E, Nikon Instruments Spa, Florence, Italy). The intensity of fluorescence was directly proportional to the aggregation of α-synuclein. Data are expressed as arbitrary units of fluorescence.

PAMPA-BBB assay = settings: for prediction (penetration in the CNS): from PAMPA-BBB Pe; for Papp at 2.5 h: pig, PAMPA, pH 7.4
GSK-3β = GSK-3β (Homo sapiens, UniProt P49841); test: GSK-3β inhibition, luminescent kinase assay (Kinase-Glo); settings: for IC50: GSK-3β inhibition IC50 (μM) ± SEM, human recombinant enzyme, luminescence method
Sequence of GSK-3β (P49841 whole entry): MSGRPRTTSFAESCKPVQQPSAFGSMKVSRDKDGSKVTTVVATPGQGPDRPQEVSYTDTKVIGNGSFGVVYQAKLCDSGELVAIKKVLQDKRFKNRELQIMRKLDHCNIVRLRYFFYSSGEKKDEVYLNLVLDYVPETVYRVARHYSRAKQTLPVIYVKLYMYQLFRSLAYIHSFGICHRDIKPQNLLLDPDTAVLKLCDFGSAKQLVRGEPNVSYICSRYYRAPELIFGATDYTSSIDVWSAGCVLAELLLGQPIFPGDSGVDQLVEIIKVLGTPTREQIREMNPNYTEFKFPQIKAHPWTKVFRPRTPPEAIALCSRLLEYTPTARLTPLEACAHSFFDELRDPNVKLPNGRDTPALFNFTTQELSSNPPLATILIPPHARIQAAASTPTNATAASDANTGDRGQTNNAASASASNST
Method: A kinetic study was performed in which the concentrations of both ATP and tested compounds were varied, while the concentration of the substrate was kept constant.
GSK-3β inhibition . Kinase-Glo assays (Promega Biotech Iberica, SL) were performed in assay buffer using
black 96-well plates. In a typical assay, 10 µl (10 µM) of test compound (dissolved in DMSO at 1 mM concentration and diluted in advance in assa y buffer to the desired concentration) and 10 µL (20 ng) of
enzyme were added to each well followed by 20 µl of assay buffer containing 50 µM substrate and 2 µM ATP.
After 30 -min incu bation at 30 °C
the enzymatic reaction was stopped with 40 µL of Kinase -Glo reagent. Glow -type luminescence was recorded
after 10 min using a FLUOstar Optima (BMG Labtechnologies GmbH, Offenburg Germany) multimode reader.
The activity is proportional to th e difference in the total and consumed ATP. The inhibitory activities were
calculated on the basis of maximal activities measured in the absence of inhibitor. The IC 50 was defined as the concentration of each compound that reduces a 50 % the enzymatic activity with respect to that without
inhibitors. Five different concentrations by duplicate were used to determine the dose/response curve.

## CCOC(=O)/C=C/C(C(=O)/C=C/c1ccc(OC)cc1)=C(O)\C=C\c1ccc(OC)cc1 [Compound 4, Ethyl (2E,4Z,6E)-5-Hydroxy-7-(4-methoxyphenyl)-4-((E)-3-(4-methoxyphenyl)acryloyl)hepta-2,4,6-trienoate]
Nrf2
  nuclear translocation of Nrf2: induce the nuclear translocation of Nrf2
  treatment time of maximum ratio between nuclear and cytosolic Nrf2 levels: 3 h
Nrf2/ARE
  Nrf2/ARE binding activity: increase in Nrf2/ARE binding activity
  Nrf2/ARE effect compared to DMF: superior effects to DMF
SH-SY5Y cells [1]
  prevention of Aβ1–42 oligomers-induced cell death: failed to prevent Aβ1–42 oligomers-induced cell death
SH-SY5Y cells [2]
  protection against 6-OHDA-induced decrease in cell viability: mitigate the 6-OHDA-induced decrease in cell viability
[3]
  levels of α-syn aggregates elicited by 6-OHDA: significantly decrease the levels of toxic α-syn aggregates
PAMPA-BBB assay
  prediction (penetration in the CNS): CNS + (compounds showing a Pe value superior to 2.26 × 10^–6 cm s^–1 could be regarded as able to permeate the brain compartment and thus classified as (CNS +))
  Papp at 2.5 h: 2.5 ± 0.3 ×10⁻⁶ cm/s
GSK-3β
  IC50: > 10 µM
GSK-3β; read-out: GSK-3β inhibition, inhibition (%)
  inhibition at 10 µM: 40%

## CCOC(=O)/C=C/C(C(=O)/C=C/c1ccc(OC)cc1)=C(O)\C=C\c1ccc(OCc2ccccc2)cc1 [Compound 5, Ethyl (2E,4Z,6E)-7-(4-(Benzyloxy)phenyl)-5-hydroxy-4-((E)-3-(4-methoxyphenyl)acryloyl)hepta-2,4,6-trienoate]
Nrf2
  nuclear translocation of Nrf2: induce the nuclear translocation of Nrf2
  treatment time of maximum ratio between nuclear and cytosolic Nrf2 levels: 3 h
Nrf2/ARE
  Nrf2/ARE binding activity: increase in Nrf2/ARE binding activity
  Nrf2/ARE effect compared to DMF: superior effects to DMF
SH-SY5Y cells [1]
  prevention of Aβ1–42 oligomers-induced cell death: failed to prevent Aβ1–42 oligomers-induced cell death
SH-SY5Y cells [2]
  protection against 6-OHDA-induced decrease in cell viability: mitigate the 6-OHDA-induced decrease in cell viability
[3]
  levels of α-syn aggregates elicited by 6-OHDA: significantly decrease the levels of toxic α-syn aggregates
PAMPA-BBB assay
  prediction (penetration in the CNS): CNS + (compounds showing a Pe value superior to 2.26 × 10^–6 cm s^–1 could be regarded as able to permeate the brain compartment and thus classified as (CNS +))
  Papp at 2.5 h: 4.8 ± 0.4 ×10⁻⁶ cm/s
GSK-3β
  IC50: 8.4 µM and 8.39 µM
